The source of these data is PMC12040169 (PLOS Biology, 2025).

This data set in a line: in vitro. Particulars: human, hela cells, % viability.
Take `O=C(Cc1nnc(-c2ccncc2)o1)NCCC1=CCCCC1` [CBK288605]: the viability at 28.5 h, 10 µM turned out to be 117%. With `Cc1c(-c2noc(-c3ccc4c(c3)OCO4)n2)nnn1Cc1ccccc1` [CBK288609] the figure was 116%; with `COc1ccccc1CNc1nccc(-n2ccc(C)n2)n1` [CBK288611], 111%; with `COc1cccc(CNc2nccc(-n3nc(C)cc3C)n2)c1` [CBK288612], 96%. On to `Cc1cc(C)n(-c2ccnc(NCc3cccnc3)n2)n1` [CBK288614], for which the viability at 28.5 h, 10 µM came out at 109%. In the case of `Cc1cc(C)n(-c2ccnc(NCCc3cccnc3)n2)n1` [CBK288615], the viability at 28.5 h, 10 µM was found to be 94.7%.

Turning to `Cc1cccc(Nc2nccc(-n3ccc(C)n3)n2)c1` [CBK288616], the viability at 28.5 h, 10 µM was found to be 79.7%.

As for `CC(C)n1cnc2ccc(-c3noc(-c4nccc5ccccc45)n3)cc21` [CBK288617], the viability at 28.5 h, 10 µM worked out at 109%. For `O=C(c1ccncc1)N1CCc2cc(-c3csc(C4CC4)n3)ccc21` [CBK288618], the viability at 28.5 h, 10 µM was determined as 94.5%. As for `c1cncc(CN2CCCC(OCc3nc(-c4ccncc4)no3)C2)c1` (centres unmarked) [CBK288621], the viability at 28.5 h, 10 µM turned out to be 114%. To `O=C(CN1C(=O)c2ccncc2C1=O)Nc1ccccn1` [CBK288624] belongs 89.9%. Turning to `O=C(Nc1nc2ccccc2[nH]1)c1ccncc1` [CBK288626], the viability at 28.5 h, 10 µM worked out at 95.3%. On to `Cc1c(CNC(=O)c2cc(-c3ccncc3)nc3ccc(Cl)cc23)cnn1C` [CBK288627], for which the viability at 28.5 h, 10 µM is 99.5%. For the molecule `c1ccc(-c2nnc(C3CCNCC3)[nH]2)nc1` [CBK288629G], the viability at 28.5 h, 10 µM was found to be 97%. In the case of `O=C(Nc1ccc2n(c1=O)C[C@H]1C[C@@H]2CN(C(=O)Cc2cccs2)C1)c1ccccc1` [CBK288709], the viability at 28.5 h, 10 µM came out at 82.4%. Take `CC(=O)N1C[C@@H]2C[C@H](C1)c1ccc(NS(=O)(=O)c3cccc(F)c3)c(=O)n1C2` [CBK288710]: the viability at 28.5 h, 10 µM was found to be 105%.

In the case of `O=C(Nc1ccc(=O)n2c1[C@@H]1C[C@@H](CN(C(=O)COc3ccccc3)C1)C2)c1cncnc1` [CBK288712], the viability at 28.5 h, 10 µM was found to be 109%. With `O=C(Nc1ccc(=O)n2c1[C@@H]1C[C@@H](CN(C(=O)c3ccc(F)cc3)C1)C2)c1cncnc1` [CBK288713] the figure was 112%; with `CC(=O)N1CCN(CC[C@@H]2CC[C@H](O)[C@@H](C(=O)N(C)Cc3ccccc3)O2)CC1` [CBK288716], 93.3%; with `CC(C)NC(=O)[C@H]1O[C@H](CCN2CCOCC2)CC[C@@H]1O` [CBK288720], 108%. As for `O=C([C@H]1O[C@H](CCN2CCN(c3ccccc3)CC2)CC[C@@H]1O)N1CCOCC1` [CBK288724], the viability at 28.5 h, 10 µM came to 98.5%. `O=C(Nc1ccccc1)[C@H]1O[C@H](CCN2CCN(c3ccccc3)CC2)CC[C@@H]1O` [CBK288725]: the viability at 28.5 h, 10 µM was 84.1%. For the molecule `C#CCNC(=O)[C@H]1O[C@H](CCN(C)CC#C)CC[C@@H]1O` [CBK288727], the viability at 28.5 h, 10 µM was found to be 89.6%. Take `C#CCNC(=O)[C@H]1O[C@H](CCN2CCOCC2)CC[C@@H]1O` [CBK288729]: the viability at 28.5 h, 10 µM is 102%. On to `O=C([C@H]1O[C@H](CCN2CCN(c3ccccn3)CC2)CC[C@@H]1O)N1CCCC1` [CBK288730], for which the viability at 28.5 h, 10 µM stood at 83.3%.

As to `O=C(NCc1ccccc1)[C@H]1CN2CCC1C[C@@H]2Cn1cc(-c2ccc(F)cc2)nn1` (some centres unmarked) [CBK288736], the viability at 28.5 h, 10 µM came to 87%. Regarding `CC(C)(C)c1cn(C[C@H]2CC3CCN2C[C@@H]3C(=O)Nc2nccs2)nn1` (some centres unmarked) [CBK288737], the viability at 28.5 h, 10 µM was 87%. Consider `O=C(NC1CC1)[C@H]1CN2CCC1C[C@@H]2Cn1cc(-c2cccc(O)c2)nn1` (some centres unmarked) [CBK288738], for which the viability at 28.5 h, 10 µM stood at 79.8%. In the case of `O=C(NC1CC1)[C@H]1CN2CCC1C[C@@H]2Cn1cc(CC2CCCCC2)nn1` (some centres unmarked) [CBK288739], the viability at 28.5 h, 10 µM came out at 103%.

Regarding `Cn1nc(C2CCCC2)cc1[C@H]1CN2CC[C@H]1C[C@@H]2CNC(=O)N1CCOCC1` [CBK288740], the viability at 28.5 h, 10 µM is 83.4%. Regarding `Cn1nc(C2CCCC2)cc1[C@H]1CN2CC[C@H]1C[C@@H]2CNS(=O)(=O)c1ccccc1` [CBK288741], the viability at 28.5 h, 10 µM was 96.3%. `CCNC(=O)NC[C@H]1C[C@@H]2CCN1C[C@@H]2c1cc(C2CCCC2)nn1C` [CBK288743]: the viability at 28.5 h, 10 µM was determined as 93.6%. For `CC(C)NC(=O)NC[C@H]1C[C@@H]2CCN1C[C@@H]2c1cc(C2CCCC2)nn1C` [CBK288744], the viability at 28.5 h, 10 µM amounted to 96.5%. With `CC[C@H]1C[N@@]2CC[C@H]1C[C@@H]2CNS(=O)(=O)c1ccc(NC(C)=O)cc1` [CBK288745] the figure was 82.9%; with `CC[C@H]1C[N@@]2CC[C@H]1C[C@@H]2CNS(=O)(=O)c1cccc2cccnc12` [CBK288747], 90.6%. `CC[C@H]1CN2CC[C@H]1C[C@@H]2CNC(=O)Nc1cccc(C#N)c1` [CBK288748]: the viability at 28.5 h, 10 µM was determined as 87.4%. To `C=C[C@H]1C[N@@]2CC[C@H]1C[C@@H]2CNS(=O)(=O)c1cccc(C#N)c1` [CBK288750] belongs 103%. With `C=C[C@H]1C[N@@]2CC[C@H]1C[C@@H]2CNS(=O)(=O)c1cccc2cccnc12` [CBK288751] the figure was 98.2%.

In the case of `C#C[C@H]1C[N@@]2CC[C@H]1C[C@@H]2CNS(=O)(=O)c1cccc(C#N)c1` [CBK288753], the viability at 28.5 h, 10 µM came out at 106%. As for `C#C[C@H]1C[N@@]2CC[C@H]1C[C@@H]2CNC(=O)Nc1ccc(C(C)=O)cc1` [CBK288755], the viability at 28.5 h, 10 µM is 114%.

For `COc1ccc(-c2cc([C@H]3CN4CC[C@H]3C[C@@H]4CNC(C)=O)n(C)n2)cc1OC` [CBK288757], the viability at 28.5 h, 10 µM stood at 86.3%.

Turning to `Cc1ccc(S(=O)(=O)NC[C@H]2C[C@@H]3CC[N@]2C[C@@H]3CN2CCOCC2)cc1` [CBK288758], the viability at 28.5 h, 10 µM was 94.2%. With `O=S(=O)(NC[C@H]1C[C@@H]2CC[N@]1C[C@@H]2CN1CCOCC1)c1cccs1` [CBK288759] the figure was 90.7%; with `O=S(=O)(NC[C@H]1C[C@@H]2CCN1C[C@@H]2CN1CCOCC1)c1ccccc1` [CBK288760], 92.9%; with `O=S(=O)(NC[C@H]1C[C@@H]2CC[N@]1C[C@@H]2CN1CCOCC1)c1ccc(Cl)cc1` [CBK288762], 92.4%.

On to `COc1ccc(S(=O)(=O)NC[C@H]2C[C@@H]3CC[N@]2C[C@@H]3CN2CCCCC2)cc1` [CBK288764], for which the viability at 28.5 h, 10 µM is 98.9%. For the molecule `CC(=O)c1ccc(NC(=O)NC[C@H]2C[C@@H]3CC[N@]2C[C@@H]3CN2CCN(C)CC2)cc1` [CBK288768], the viability at 28.5 h, 10 µM is 116%. On to `COc1ccc(S(=O)(=O)NC[C@H]2C[C@@H]3CC[N@]2C[C@@H]3CN2CCSCC2)cc1` [CBK288769], for which the viability at 28.5 h, 10 µM amounted to 86.6%. Regarding `COc1ccccc1N1CCN(C[C@H]2C[N@@]3CC[C@H]2C[C@@H]3CNS(C)(=O)=O)CC1` [CBK288770], the viability at 28.5 h, 10 µM is 87.5%. For the molecule `CC[C@H]1CN(C(=O)c2cccnc2)CC[C@H]1CC(=O)NCc1ccc2c(c1)OCO2` [CBK288771], the viability at 28.5 h, 10 µM was determined as 87.7%. As for `CC[C@H]1CN(C(=O)NC(C)C)CC[C@H]1CC(=O)Nc1nccs1` [CBK288774], the viability at 28.5 h, 10 µM is 109%. Take `CC[C@H]1CN(C(=O)Nc2cccc(C(F)(F)F)c2)CC[C@H]1CC(=O)O` [CBK288776]: the viability at 28.5 h, 10 µM amounted to 89.3%. Take `CC[C@H]1CN(C(=O)Nc2ccccc2)CC[C@H]1CC(=O)N(C)CC#N` [CBK288777]: the viability at 28.5 h, 10 µM worked out at 101%. For the molecule `CC[C@H]1CN(S(=O)(=O)c2c(C)noc2C)CC[C@H]1CC(=O)Nc1nccs1` [CBK288779], the viability at 28.5 h, 10 µM turned out to be 88.3%.

On to `CCCNC(=O)C[C@@H]1CCN(S(=O)(=O)c2c(C)noc2C)C[C@@H]1CC` [CBK288780], for which the viability at 28.5 h, 10 µM was determined as 103%. For the molecule `O=C(O)C[C@@H]1CCN(C(=O)C2CCCCC2)C[C@@H]1CCN1CCCCC1` [CBK288781], the viability at 28.5 h, 10 µM was 90.1%. For `COc1ccc(C(=O)N2CC[C@H]3CC(=O)N(CCNC(C)=O)CC[C@H]3C2)cc1` [CBK288784], the viability at 28.5 h, 10 µM amounted to 78.8%.

Consider `O=C1C[C@@H]2CCN(C(=O)Nc3cccc(C(F)(F)F)c3)C[C@@H]2CCN1CCc1c[nH]cn1` [CBK288786], for which the viability at 28.5 h, 10 µM was determined as 105%.

With `COc1cccc(NC(=O)N2CC[C@H]3CC(=O)N(c4ccccc4)CC[C@H]3C2)c1` [CBK288787], the viability at 28.5 h, 10 µM is 95.4%. For the molecule `CC(C)N1CC[C@H]2CN(C(=O)CCC(=O)O)CC[C@H]2CC1=O` [CBK288789], the viability at 28.5 h, 10 µM worked out at 87.8%. Turning to `O=C1C[C@@H]2CCN(C(=O)COc3ccccc3)C[C@@H]2CCN1Cc1cccnc1` [CBK288793], the viability at 28.5 h, 10 µM was 82%.

Regarding `C=CCNC(=O)N1CC[C@H]2CC(=O)N(Cc3ccc4c(c3)OCO4)CC[C@H]2C1` [CBK288794], the viability at 28.5 h, 10 µM turned out to be 97.8%. With `COc1ccc(C(=O)N2CC[C@H]3CC(=O)N(CCN4CCNC4=O)CC[C@H]3C2)cc1` [CBK288795], the viability at 28.5 h, 10 µM is 110%. On to `CC(C)(C)c1cc(C[C@H]2CNCC[C@H]2CC(=O)Nc2nccs2)no1` [CBK288798], for which the viability at 28.5 h, 10 µM was determined as 81%. To `CC(C)(C)c1cc(C[C@H]2CNCC[C@H]2CC(=O)N2CCN(c3ccccn3)CC2)no1` [CBK288799] belongs 87.4%; to `O=C(C[C@@H]1CCNC[C@@H]1Cc1cc(-c2ccc(F)cc2)on1)Nc1ccccc1` [CBK288801], 96.4%. With `CC(C)(C)NC(=O)C[C@@H]1CCNC[C@@H]1Cc1cc(-c2ccc(F)cc2)on1` [CBK288802], the viability at 28.5 h, 10 µM was 99.2%.

Regarding `Cc1nn(CCC#N)c(C)c1[C@@H]1C=C[C@@H](NS(=O)(=O)c2ccccc2)C1` [CBK288805], the viability at 28.5 h, 10 µM turned out to be 91%. In the case of `Cc1nn(-c2cccc(Br)c2)c(C)c1[C@@H]1C=C[C@@H](NS(C)(=O)=O)C1` [CBK288806], the viability at 28.5 h, 10 µM amounted to 86.3%. `COc1ccc(CN[C@H]2[C@H](O)[C@@H](N3CCN(C(C)=O)CC3)[C@@H]3OC[C@H]2O3)cc1` [CBK288808]: the viability at 28.5 h, 10 µM came to 96.9%. On to `CC(=O)N1CCN([C@H]2[C@@H]3OC[C@@H](O3)[C@@H](NC(=O)NC3CCCCC3)[C@@H]2O)CC1` [CBK288810], for which the viability at 28.5 h, 10 µM stood at 101%.

Usually viability stands for a read-out of living cells in per cent, often relative to untreated cells.
